System: TFEB
Assay: TFEB Nuclear Translocation Assay
Type: cell-based
Settings: read-out: EC50 of TFEB activation

| EC50 [µM] | Structure (SMILES) |
| --- | --- |
| ≤ 1 | CC(C)S(=O)(=O)c1ccc(S(=O)(=O)n2nc(N3CCN(c4ncc(F)cn4)C[C@H]3C3CC3)c3c(Cl)cccc32)cc1 (single isomer, unassigned) [Compound 61] |
| ≤ 1 | CC(C)S(=O)(=O)c1ccc(S(=O)(=O)n2nc(N3CCN(c4ncc(F)cn4)C[C@H]3C(F)(F)F)c3c(Cl)cccc32)cc1 (single isomer, unassigned) [Compound 69] |
| ≤ 1 | CC(C)S(=O)(=O)c1ccc(S(=O)(=O)n2nc(N3CCN(C(=O)C(F)(F)F)C[C@H]3C(F)(F)F)c3c(Cl)cccc32)cc1 (single isomer, unassigned) [Compound 71] |
| ≤ 1 | CC(C)S(=O)(=O)c1ccc(S(=O)(=O)n2nc(N3CCN(c4ncc(F)cn4)C[C@H]3C(F)(F)F)c3c(F)cccc32)cc1 (single isomer, unassigned) [Compound 73] |
| ≤ 1 | CC(C)S(=O)(=O)c1ccc(S(=O)(=O)n2nc(N3CC=C(Cl)C[C@H]3C(F)(F)F)c3c(Cl)cccc32)cc1 (single isomer, unassigned) [Compound 83] |
| ≤ 1 | CC(F)(F)c1ccc(S(=O)(=O)n2nc(N3CCN(c4ncc(F)cn4)C[C@@H]3C(F)(F)F)c3c(Cl)cccc32)cc1 (single isomer, unassigned) [Compound 107] |
| ≤ 1 | CC(C)S(=O)(=O)c1ccc(S(=O)(=O)n2nc(N3CCC[C@H]3C(F)(F)F)c3c(Cl)cccc32)cc1 (single isomer, unassigned) [Compound 110] |
| ≤ 1 | CC(F)(F)c1ccc(S(=O)(=O)n2nc(N3CCN(c4ncc(F)cn4)C[C@@H]3C(C)(C)F)c3c(Cl)cccc32)cc1 (single isomer, unassigned) [Compound 122] |
| ≤ 1 | CC(C)(C)S(=O)(=O)c1ccc(S(=O)(=O)n2nc(N3CCN(c4ncc(Cl)cn4)CC34CC4)c3c(Cl)cccc32)s1 [Compound 1, 1-[(5-tert-butylsulfonyl-2-thienyl)sulfonyl]-4-chloro-3-[7-(5-chloropyrimidin-2-yl)-4,7-diazaspiro [2.5]octan-4-yl]indazole] |
| ≤ 1 | CC(C)S(=O)(=O)c1ccc(S(=O)(=O)n2nc(N3CCN(c4ncc(Cl)cn4)CC34CC4)c3c(Cl)cccc32)cc1 [Compound 2, 4-chloro-3-(7-(5-chloropyrimidin-2-yl)-4,7-diazaspiro [2.5]octan-4-yl)-1-((4-(isopropylsulfonyl)phenyl)sulfonyl)-1H-indazole] |
| ≤ 1 | CC(C)S(=O)(=O)c1ccc(S(=O)(=O)n2nc(N3CCN(c4ncc(F)cn4)CC34CC4)c3c(Cl)cc(F)cc32)cc1 [Compound 3, 4-chloro-6-fluoro-3-(7-(5-fluoropyrimidin-2-yl)-4,7-diazaspiro [2.5]octan-4-yl)-1-((4-(isopropylsulfonyl)phenyl)sulfonyl)-1H-indazole] |
| ≤ 1 | CC(C)S(=O)(=O)c1ccc(S(=O)(=O)n2nc(N3CCN(c4ncc(Cl)cn4)CC3C3CC3)c3c(Cl)cccc32)s1 (stereo not drawn) [Compound 5, 4-chloro-3-[4-(5-chloropyrimidin-2-yl)-2-cyclopropyl-piperazin-1-yl]-1-[(5-isopropylsulfonyl-2-thienyl)sulfonyl]indazole] |
| ≤ 1 | CC(C)S(=O)(=O)c1ccc(S(=O)(=O)n2nc(N3CCN(CC(F)(F)F)CC34CC4)c3c(Cl)cccc32)s1 [Compound 6, 4-chloro-1-[(5-isopropylsulfonyl-2-thienyl)sulfonyl]-3-[7-(2,2,2-trifluoroethyl)-4,7-diazaspiro [2.5]octan-4-yl]indazole] |
| ≤ 1 | CC(C)S(=O)(=O)c1ccc(S(=O)(=O)n2nc(N3CCOCC34CC4)c3c(Cl)cccc32)s1 [Compound 7, 4-[4-chloro-1-[(5-isopropylsulfonyl-2-thienyl)sulfonyl]indazol-3-yl]-7-oxa-4-azaspiro [2.5]octane] |
| ≤ 1 | CC(C)S(=O)(=O)c1ccc(S(=O)(=O)n2nc(N3CCC(=O)CC34CC4)c3c(Cl)cccc32)s1 [Compound 8, 4-[4-chloro-1-[(5-isopropylsulfonyl-2-thienyl)sulfonyl]indazol-3-yl]-4-azaspiro [2.5]octan-7-one] |
| ≤ 1 | CC(C)S(=O)(=O)c1ccc(S(=O)(=O)n2nc(N3CCN(C(=O)C(F)(F)F)CC34CC4)c3c(Cl)cccc32)s1 [Compound 9, 1-[4-[4-chloro-1-[(5-isopropylsulfonyl-2-thienyl)sulfonyl]indazol-3-yl]-4,7-diazaspiro [2.5]octan-7-yl]-2,2,2-trifluoro-ethanone] |

| EC50 [µM] | Structure (SMILES) |
| --- | --- |
| ≤ 1 | CC(C)S(=O)(=O)c1ccc(S(=O)(=O)n2nc(N3CCN(c4ncc(F)cn4)CC34CC4)c3c(Cl)cccc32)cc1 [Compound 10, 4-chloro-3-[7-(5-fluoropyrimidin-2-yl)-4,7-diazaspiro [2.5]octan-4-yl]-1-(4-isopropylsulfonylphenyl) sulfonyl-indazole] |
| ≤ 1 | CC(C)S(=O)(=O)c1ccc(S(=O)(=O)n2nc(N3CCC(F)CC34CC4)c3c(Cl)cccc32)s1 (stereo not drawn) [Compound 11, 4-chloro-3-(7-fluoro-4-azaspiro [2.5]octan-4-yl)-1-[(5-isopropylsulfonyl-2-thienyl)sulfonyl]indazole] |
| ≤ 1 | CC(C)S(=O)(=O)c1ccc(S(=O)(=O)n2nc(N3CCC(F)(F)CC34CC4)c3c(Cl)cccc32)s1 [Compound 12, 4-chloro-3-(7,7-difluoro-4-azaspiro [2.5]octan-4-yl)-1-[(5-isopropylsulfonyl-2-thienyl)sulfonyl]indazole] |
| ≤ 1 | CC(C)S(=O)(=O)c1ccc(S(=O)(=O)n2nc(N3CCN(S(=O)(=O)C(F)(F)F)CC34CC4)c3c(Cl)cccc32)s1 [Compound 14, 4-chloro-1-[(5-isopropylsulfonyl-2-thienyl)sulfonyl]-3-[7-(trifluoromethylsulfonyl)-4,7-diazaspiro [2.5]octan-4-yl]indazole] |
| ≤ 1 | CC(C)S(=O)(=O)c1ccc(S(=O)(=O)n2nc(N3CCN(c4ncc(Cl)cn4)CC34CC4)c3c(F)cccc32)cc1 [Compound 15, 3-(7-(5-chloropyrimidin-2-yl)-4,7-diazaspiro [2.5]octan-4-yl)-4-fluoro-1-((4-(isopropylsulfonyl)phenyl)sulfonyl)-1H-indazole] |
| ≤ 1 | CC(C)S(=O)(=O)c1ccc(S(=O)(=O)n2nc(N3CCN(c4ncc(F)cn4)CC34CC4)c3c(F)cccc32)cc1 [Compound 16, 4-fluoro-3-(7-(5-fluoropyrimidin-2-yl)-4,7-diazaspiro [2.5]octan-4-yl)-1-((4-(isopropylsulfonyl)phenyl)sulfonyl)-1H-indazole] |
| ≤ 1 | CC(C)S(=O)(=O)c1ccc(S(=O)(=O)n2nc(N3CCCC34CC4)c3c(Cl)cccc32)s1 [Compound 17, 4-chloro-1-((5-(isopropylsulfonyl)thiophen-2-yl)sulfonyl)-3-(4-azaspiro [2.4]heptan-4-yl)-1H-indazole] |
| ≤ 1 | CC(C)S(=O)(=O)c1ccc(S(=O)(=O)n2nc(N3CCN(c4ncc(F)cn4)CC3(C)C)c3c(Cl)cccc32)cc1 [Compound 18, 4-chloro-3-(4-(5-fluoropyrimidin-2-yl)-2,2-dimethylpiperazin-1-yl)-1-((4-(isopropylsulfonyl)phenyl)sulfonyl)-1H-indazole] |
| ≤ 1 | CC(C)S(=O)(=O)c1ccc(S(=O)(=O)n2nc(N3CCN(c4ccc(F)cn4)CC34CC4)c3c(F)cc(F)cc32)cc1 [Compound 19, 4,6-difluoro-3-[7-(5-fluoro-2-pyridyl)-4,7-diazaspiro [2.5]octan-4-yl]-1-(4-isopropylsulfonylphenyl) sulfonyl-indazole] |
| ≤ 1 | CC(C)S(=O)(=O)c1ccc(S(=O)(=O)n2nc(N3CCN(c4ncc(F)cn4)CC34CC4)c3c(F)cc(F)cc32)cc1 [Compound 20, 4,6-difluoro-3-[7-(5-fluoropyrimidin-2-yl)-4,7-diazaspiro [2.5]octan-4-yl]-1-(4-isopropylsulfonylphenyl) sulfonyl-indazole] |
| ≤ 1 | CC(C)(F)S(=O)(=O)c1ccc(S(=O)(=O)n2nc(N3CCN(c4ncc(F)cn4)CC34CC4)c3c(Cl)cccc32)cc1 [Compound 22, 4-chloro-1-((4-((2-fluoropropan-2-yl)sulfonyl)phenyl)sulfonyl)-3-(7-(5-fluoropyrimidin-2-yl)-4,7-diazaspiro [2.5]octan-4-yl)-1H-indazole] |
| ≤ 1 | CC(C)S(=O)(=O)c1ccc(S(=O)(=O)n2nc(N3CCN(c4ccc(F)cn4)CC34CC4)c3c(Cl)cccc32)cc1 [Compound 23, 4-chloro-3-[7-(5-fluoro-2-pyridyl)-4,7-diazaspiro [2.5]octan-4-yl]-1-(4-isopropylsulfonylphenyl) sulfonyl-indazole] |
| ≤ 1 | CC(C)S(=O)(=O)c1ccc(S(=O)(=O)n2nc(N3CCN(c4ncc(F)cc4F)CC34CC4)c3c(Cl)cccc32)cc1 [Compound 24, 4-chloro-3-[7-(3,5-difluoro-2-pyridyl)-4,7-diazaspiro [2.5]octan-4-yl]-1-(4-isopropylsulfonylphenyl) sulfonyl-indazole] |
| ≤ 1 | CC(C)S(=O)(=O)c1ccc(S(=O)(=O)n2nc(N3CCN(c4ccc(F)cn4)CC34CC4)c3c(F)cccc32)cc1 [Compound 25, 4-fluoro-3-[7-(5-fluoro-2-pyridyl)-4,7-diazaspiro [2.5]octan-4-yl]-1-(4-isopropylsulfonylphenyl) sulfonyl-indazole] |
| ≤ 1 | CC(C)S(=O)(=O)c1ccc(S(=O)(=O)n2nc(N3CCN(c4ncc(F)cc4F)CC34CC4)c3c(F)cccc32)cc1 [Compound 26, 3-[7-(3,5-difluoro-2-pyridyl)-4,7-diazaspiro [2.5]octan-4-yl]-4-fluoro-1-(4-isopropylsulfonylphenyl) sulfonyl-indazole] |

| Structure (SMILES) | EC50 [µM] |
| --- | --- |
| CC(C)S(=O)(=O)c1cccc(S(=O)(=O)n2nc(N3CCN(c4ncc(Cl)cn4)CC34CC4)c3c(Cl)cccc32)c1 [Compound 4, 4-chloro-3-[7-(5-chloropyrimidin-2-yl)-4,7-diazaspiro [2.5]octan-4-yl]-1-(3-isopropylsulfonylphenyl) sulfonyl-indazole] | ≤ 1 |
| CC(C)S(=O)(=O)c1ccc(S(=O)(=O)n2nc(N3CCC(N(C)C)CC34CC4)c3c(Cl)cccc32)s1 (stereo not drawn) [Compound 13, 4-[4-chloro-1-[(5-isopropylsulfonyl-2-thienyl)sulfonyl]indazol-3-yl]-N, N-dimethyl-4-azaspiro [2.5]octan-7-amine] | ≤ 1 |

From patent publication US20250333406A1, “SULFONYL CYCLIC DERIVATIVES, AND COMPOSITIONS AND METHODS THEREOF” (Lysoway Therapeutics, Inc., priority 2023, published 2025)
